# Laboratory results taken from paper PMC2241828, “Amyloglucosidase enzymatic reactivity inside lipid vesicles” (Journal of Biological Engineering, 2007).
# Molecular target: T1, amyloglucosidase (AMG), EC 3.2.1.3 (Aspergillus niger, UniProt P69328)
# T1 construct: gene GLAA; commercial enzyme solution (Sigma A-3042), diluted with water
# Assay: initial rates plus fit of glucose-time curves (HPLC, starch-iodine) to Michaelis-Menten model with product inhibition
# Type: biochemical
# Settings: free enzyme; soluble starch as substrate; pH 4.5, 55 °C; competitive product inhibition (assumed model); read-out: Ki (mg mL^-1) (converted)
# T1 sequence (P69328 25-640): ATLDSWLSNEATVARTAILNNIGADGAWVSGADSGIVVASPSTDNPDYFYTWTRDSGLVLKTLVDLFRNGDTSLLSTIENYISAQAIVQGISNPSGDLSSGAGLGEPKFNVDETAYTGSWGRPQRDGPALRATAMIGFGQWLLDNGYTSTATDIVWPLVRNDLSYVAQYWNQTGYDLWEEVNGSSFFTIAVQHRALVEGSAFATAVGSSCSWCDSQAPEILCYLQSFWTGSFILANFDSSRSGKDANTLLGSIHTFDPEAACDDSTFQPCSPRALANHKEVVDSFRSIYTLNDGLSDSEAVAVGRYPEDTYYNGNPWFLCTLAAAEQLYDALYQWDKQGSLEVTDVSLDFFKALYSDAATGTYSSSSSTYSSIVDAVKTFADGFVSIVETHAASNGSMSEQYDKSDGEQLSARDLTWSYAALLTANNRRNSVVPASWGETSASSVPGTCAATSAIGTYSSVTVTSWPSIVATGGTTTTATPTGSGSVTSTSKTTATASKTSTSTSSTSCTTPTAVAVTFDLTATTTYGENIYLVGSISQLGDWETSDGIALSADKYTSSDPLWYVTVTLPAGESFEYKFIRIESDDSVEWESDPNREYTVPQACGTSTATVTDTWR
structure (smiles),measurement,value
OC[C@H]1OC(O)[C@H](O)[C@@H](O)[C@@H]1O (stereo partly shown) [glucose],Ki,555 µM
